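Following 48 hours of exposure in 96-well plates, responses at five concentrations were used to interpolate endpoints linearly. The concentration for full growth arrest is given as TGI.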

Some test systems named below: SNB-78 CNS; HOP-18 NSCLC; RXF-631 renal.
Common to all, as to assay: NCI tumour cell line growth inhibition, 48 h

For the molecule `C=CCC(N(C)C(=O)[C@H](Cc1ccccc1)NC(=O)OCc1ccccc1)P(=O)(Oc1ccccc1)Oc1ccccc1` (some centres not stated), in the assay on SNB-78 CNS, the TGI is > 100 µM. On to `CC(C)CC(NC(=O)OC(C)(C)C)C(=O)Nc1ccc(Nc2nc(F)nc(-c3c4ccccc4c4n3CCS4)n2)cc1` (configuration not stated), for which the TGI in the assay with SNB-78 CNS turned out to be 44.3 µM; with HOP-18 NSCLC it was 50.6 µM. For `CN(C)C(=S)/N=c1\ssc(=S)n1Cc1ccccc1`, the TGI in the assay on SNB-78 CNS and in the assay with HOP-18 NSCLC was > 100 µM each time.

For the molecule `O=C1c2ccccc2OP(=O)(OCC(F)(F)F)OC1(C(F)(F)F)C(F)(F)F` (configuration not stated), the TGI in the assay with SNB-78 CNS was > 100 µM. As for `Nc1ccc2c(SCc3ccc([N+](=O)[O-])cc3)c3ccccc3nc2c1`, the TGI in the assay with SNB-78 CNS stood at 63.7 µM; with HOP-18 NSCLC, 26.5 µM. For `Cc1ccc([N+](=O)[O-])cc1NC(=O)/C(=N/NC(=S)NN)C1SC(=S)NC1=O` (configuration not stated), in that order: > 100 µM and > 100 µM.

On to `N#C/C(c1nc2ccccc2[nH]1)=c1\s/c(=C/c2ccc(Cl)cc2)c(=O)n1-c1ccccc1`, for which, in the assay on HOP-18 NSCLC, the TGI was > 100 µM. The same measure, in the same setting: to `Cc1ccc(N2C(=O)CS/C2=C(\C#N)c2nc3ccccc3[nH]2)cc1` belongs > 100 µM. As for `COc1ccc(N=Cc2ccc(N(CCC#N)S(=O)(=O)c3ccccc3)cc2)cc1`, the TGI with SNB-78 CNS, in the assay with HOP-18 NSCLC and in the assay with RXF-631 renal was > 100 µM each time. As to `Nc1nc(SCc2ccc([N+](=O)[O-])cc2)nc2c1ncn2C1OC(CO)C(O)C1O` (configuration not stated), the TGI in the assay on SNB-78 CNS was > 100 µM.

Consider `CCOc1ccc(/C(Cl)=C(\C=O)c2ccc(OC)c(OC)c2)cc1OCC`, for which the TGI with SNB-78 CNS and in the assay on HOP-18 NSCLC was > 100 µM each time. Take `CN(C)C(=S)/N=c1\ssc(=S)n1Cc1cccnc1`: the TGI in the assay on SNB-78 CNS, in the assay on HOP-18 NSCLC and in the assay on RXF-631 renal was > 100 µM each time. Take `CC1CN(c2ccc(Cl)cc2)CC(C)OC(=O)O1` (configuration not stated): the TGI in the assay on SNB-78 CNS is > 100 µM.

(Values after PubChem BioAssay (NCI).)
